# Test results published in article PMC12557367, ““Precision on Two Wheels”–Structural Refinement of ^64Cu- and ^68Ga-Labeled Bicyclic Peptides Targeting Nectin‑4 for Improved Tumor Imaging: From Preclinical Development to First-in-Human Application” (Journal of Medicinal Chemistry, 2025).
# Tests used:
# [1] = biological target: T1, recombinant human nectin-4 (Homo sapiens, UniProt Q96NY8); assay: Fluorescence anisotropy (FA) direct binding of fluorescent probes; conditions: 1 nM probe
# T1 construct: close to the value determined for the complete extracellular domain of nectin-4 (0.94 nM); purchased R&D Systems 2659-N4
# T1 sequence (Q96NY8 32-349 limits assumed): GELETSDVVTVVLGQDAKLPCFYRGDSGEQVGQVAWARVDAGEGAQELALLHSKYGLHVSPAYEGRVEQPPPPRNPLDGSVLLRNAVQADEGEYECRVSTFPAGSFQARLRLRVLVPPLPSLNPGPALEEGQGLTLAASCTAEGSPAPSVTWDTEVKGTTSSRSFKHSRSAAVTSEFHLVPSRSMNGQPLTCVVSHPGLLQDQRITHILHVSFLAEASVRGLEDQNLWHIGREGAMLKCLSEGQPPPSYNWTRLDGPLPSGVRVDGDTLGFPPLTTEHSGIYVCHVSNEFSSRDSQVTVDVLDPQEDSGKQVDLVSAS
# From the text: For characterizing the binding affinity of the bicyclic peptides toward nectin-4, we envisaged a fluorescence anisotropy-based competitive binding assay. Mudd et al. also used such an assay for the development of the bicycle drug conjugate BT8009. Herein, the peptidic scaffold of BT8009 was used as a basis for the required fluorescent nectin-4-ligand (probe) with either 6-TAMRA (1a) or 6-FAM (1b) being attached at the N-terminal Cys residue. […] In this context, the binding of the probe to nectin-4 was started by the addition of nectin-4, followed by continuous fluorescence measurements over 20 min. It is worth noting that a slight initial increase in the FA values could be observed for both probes (FA values at <300 s in Figure S1); however, this putative time-dependent association appeared to be too fast to analyze it. […]
# All measurements were conducted at 37 °C over 1200 s (interval of 37 s) using a Cytation 5 multimode microplate reader (BioTek Instruments, Software Gen 5) and black 96-well microplates (BRANDplates with F-bottom wells). […] The FA (r) was calculated by Gen 5 software from the measured parallel and perpendicular fluorescence intensities (I ∥ and I ⊥, respectively) according to eq using a G factor of 0.87 (preset value). r=I∥−G×I⊥/I∥+2G×I⊥ 1 […]
# [2] = tested on: HT-1376 cells; assay: Flow cytometry with fluorescent probe; assay type: cell-based, human; conditions: 1 µM probe, on ice 1 h; 5637 cells as negative
# Method: For flow cytometry analysis, HT-1376 and 5637 cells were rinsed with PBS three times and dissociated from a flask by using 50 mM EDTA and a cell scraper. Aliquots of the cell suspension containing 1 × 10^6 cells were pelleted at 300×g for 7 min, and one pellet of each cell line was dissolved in fresh PBS + 3% BSA containing 1 μM of probe 1b. As a negative control, one HT-1376 pellet was dissolved only in PBS + 3% BSA. The cells were incubated on ice for 1 h before they were pelleted again. The staining solution was discarded, and the pellet was washed in 1 mL of PBS + 0.5% BSA + 2 mM EDTA (FACS wash buffer) and centrifuged again. The washing step was repeated a total of three times. After the last wash, the pellets were dissolved in 500 μL of FACS wash buffer and analyzed with an Attune NxT Flow Cytometer (Invitrogen). For the detection, the BL1 laser with an excitation of 488 nm and an emission filter of 530/30 nm set to a Voltage of 270 was used. The forward scatter was set to a voltage of 80 or 120, and the sideward scatter was set to 320 or 370 for HT-1376 or 5637 cells, respectively. A sample of 50 μL was analyzed at a speed of 100 μL/min, leading to a total of 35410 and 34992 analyzed events (singlets) for HT-1376 and 5637 cells, respectively.
compound,measurement,setting,value
CSCC[C@@H]1NC(=O)[C@@H]2CSCCC(=O)N3CN(CN(C3)C(=O)CCSC[C@H](NC(=O)c3ccc(C(=O)O)c(-c4c5ccc(=O)cc-5oc5cc(O)ccc45)c3)C(=O)N3CCC[C@H]3C(=O)N[C@@H](Cc3cccc4ccccc34)C(=O)N[C@H](CC(=O)O)C(=O)N2)C(=O)CCSC[C@@H](C(N)=O)NC(=O)[C@H](Cc2c[nH]c3ccccc23)NC(=O)[C@@H]2C[C@@H](O)CN2C(=O)[C@@H]2CCCN2C(=O)[C@H]([C@@H](C)O)NC(=O)[C@H](CO)NC(=O)[C@H](Cc2c[nH]c3ccccc23)NC(=O)[C@H](CC(=O)O)NC(=O)[C@H](CCCCNC(=N)N)NC1=O [1b],dynamic range (ΔFA = mA of bound probe – mA of free probe),[1],86 (±7) mA
same,binding of probe to cells (FACS),[2],Nectin-4-specific binding
